We go through 27 compounds from ChEMBL document CHEMBL2169830, “Identification, synthesis, and biological evaluation of the metabolites of 3-amino-6-(3'-aminopropyl)-5H-indeno[1,2-c]isoquinoline-5,11-(6H)dione (AM6-36), a promising rexinoid lead compound for the development of cancer chemotherapeutic and chemopreventive agents” (J Med Chem, 2012).

As a reminder, the inhibition is the change of the read-out against control, counted positive when it falls. The term IC50 denotes the point on the concentration scale where inhibition reaches its midpoint. Usually EC50 stands for the midpoint of the concentration-response curve.

The structures appear in SMILES notation.

The nature of data set [1]: Cytotoxicity against human HEK293 cells assessed as cell survival at 50 uM relative to control. In kind it is cell-based. Particulars: read-out: Survival.
Data set [2] deals with HEK293. The experiment in a line: Inhibition of TNFalpha-induced human NFkappaB activity in HEK293 cells at 50 uM incubated for 6 hrs followed by compound wash out measured after 5 mins by luciferase assay. It counts as cell-based.
The nature of data set [3]: Cytotoxicity against african green monkey COS1 cells assessed as cell survival at 50 uM relative to control. It counts as cell-based. The conditions noted are these: chlorocebus aethiops, COS-1 cells; read-out: Survival.
A short description of data set [4]: Inhibition of TNFalpha-induced human NFkappaB activity in HEK293 cells incubated for 6 hrs followed by compound wash out measured after 5 mins by luciferase assay. In kind it is cell-based.
In data set [5] the target is T1, Retinoic acid receptor RXR-alpha (Homo sapiens) (UniProt P19793).
T1 sequence (whole entry): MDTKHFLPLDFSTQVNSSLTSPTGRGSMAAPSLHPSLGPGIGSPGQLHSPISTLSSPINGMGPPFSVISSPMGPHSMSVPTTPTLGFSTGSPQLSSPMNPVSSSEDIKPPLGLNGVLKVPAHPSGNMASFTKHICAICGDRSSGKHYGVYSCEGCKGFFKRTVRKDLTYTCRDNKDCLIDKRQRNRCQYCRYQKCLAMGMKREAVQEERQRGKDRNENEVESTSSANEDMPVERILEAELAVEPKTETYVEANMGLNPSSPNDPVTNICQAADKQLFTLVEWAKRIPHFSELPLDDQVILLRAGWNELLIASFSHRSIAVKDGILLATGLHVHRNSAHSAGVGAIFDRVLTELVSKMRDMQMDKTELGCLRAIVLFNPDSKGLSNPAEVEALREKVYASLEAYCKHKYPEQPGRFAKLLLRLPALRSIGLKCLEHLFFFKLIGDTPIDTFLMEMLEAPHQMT
In words: Agonist activity at human RXRalpha expressed in african green monkey COS1 cells assessed as induction of RXRE transcriptional activity at 12.5 uM after 12 hrs by luciferase reporter gene assay relative to control. In kind it is functional, cell-based. The conditions noted are these: COS-1. Background: Reporter assays use an easily measured gene product as a stand-in for the process of interest.

Data set [6] relates to HEK293. In words: Cytotoxicity against human HEK293 cells. In kind it is cell-based.
The target of data set [7] is T2, Retinoic acid receptor RXR-alpha (Homo sapiens, UniProt P19793).
T2 sequence (P19793 whole entry): T1 sequence (whole entry)
The experiment in a line: Agonist activity at human RXRalpha expressed in african green monkey COS1 cells assessed as induction of RXRE transcriptional activity after 12 hrs by luciferase reporter gene assay. It counts as functional, cell-based, COS-1.

A short description of data set [8]: Cytotoxicity against african green monkey COS1 cells assessed as cell survival at 40 uM relative to control. It counts as cell-based. The conditions noted are these: chlorocebus aethiops, COS-1 cells; read-out: Survival.

As for `CC(C)(C)OC(=O)NCCCn1c2c(c3ccc([N+](=O)[O-])cc3c1=O)C(=O)c1ccccc1-2`, the viability at 50 µM in data set [1] was 101%; in data set [3], 106%. In the data set on HEK293 [2], the inhibition was 0%.
On to `CNc1ccc2c3c(n(CCCN)c(=O)c2c1)-c1ccccc1C3O` (stereo not drawn), for which the results for the viability at 50 µM in data set [1] and in data set [3] were 95% and 63.6%, respectively. Besides, in data set [4], the half-inhibitory concentration (IC50) is 0.7 µM. Also, the inhibition with HEK293 [2] turned out to be 69.2%.
Take `CNc1ccc2c3c(n(CCCN)c(=O)c2c1)-c1ccccc1C3=O`: the viability at 50 µM in data set [1] was 99.4%; in data set [3] it was less than 50%. In the data set on HEK293 [2], this compound showed an inhibition of 0%. The fold change (FC) in data set [5] stood at 6.09.
Regarding `NCCCn1c2c(c3ccc([N+](=O)[O-])cc3c1=O)C(=O)c1ccccc1-2`, the IC50 in the data set with HEK293 [6] amounted to 16.9 µM; in data set [4], 2.6 µM. Also, the viability at 50 µM in data set [1] and in data set [3] was less than 50% each time. In the data set with HEK293 [2], this compound displayed an inhibition of 80.8%.
Turning to `CC(=O)NCCCn1c2c(c3ccc(N)cc3c1=O)C(=O)c1ccccc1-2`, the values for the viability at 50 µM in data set [1] and in data set [3] were 106% and 75.2%, respectively. This compound returned a half-inhibitory concentration (IC50) in data set [4] of 14.4 µM. This compound returned an inhibition in the data set with HEK293 [2] of 81.8%. In data set [7], the EC50 turned out to be 20.9 µM. Besides, the fold change (FC) in data set [5] turned out to be 3.52.
On to `CN(C)c1ccc2c3c(n(CCCNC(=O)OC(C)(C)C)c(=O)c2c1)-c1ccccc1C3=O`, for which the figures for the viability at 50 µM in data set [1] and in data set [3] were 97.6% and 102%, respectively. Besides, the inhibition in the data set on HEK293 [2] stood at 25.9%.
Regarding `CC(=O)NCCCn1c2c(c3ccc([N+](=O)[O-])cc3c1=O)C(=O)c1ccccc1-2`, the viability at 50 µM came to 69.1% in data set [1] and 99.4% in data set [3]. This compound also had a half-maximal inhibitory concentration (IC50) in data set [4] of 38.8 µM. Besides, in the data set on HEK293 [2], the inhibition came to 87.4%.
In the case of `C=C(c1ccc(C(=O)O)cc1)c1cc2c(cc1C)C(C)(C)CCC2(C)C` [BEXAROTENE], the viability at 40 µM in data set [8] is 74.5%.
As to `NCCCn1c2c(c3ccc(N)cc3c1=O)C(O)c1ccccc1-2` (stereo not drawn), the values for the viability at 50 µM in data set [1] and in data set [3] were less than 50% and 87.5%, respectively. Moreover, the inhibition in the data set on HEK293 [2] came out at 53.1%.
For the compound `CC(=O)Nc1ccc2c3c(n(CCCN)c(=O)c2c1)-c1ccccc1C3=O`, the viability at 50 µM amounted to 122% in data set [1] and 74.5% in data set [3]. In the data set on HEK293 [2], this compound came in with an inhibition of 0%. Moreover, the concentration giving a half-maximal response (EC50) in data set [7] is greater than 41.4 µM. For the same compound, the fold change (FC) in data set [5] came to 3.55.
Compound `Cc1ccc(S(=O)(=O)N[C@@H](Cc2ccccc2)C(=O)CCl)cc1` [TPCK] had an IC50 in data set [4] of 5.1 µM.
Regarding `Nc1ccc2c3c(n(CCCCl)c(=O)c2c1)-c1ccccc1C3=O`, the viability at 50 µM in data set [1] came out at 91.4%; in data set [3], 102%. The same compound came in with an inhibition with HEK293 [2] of 0%.
Regarding `O=C1c2ccccc2-c2c1c1ccc([N+](=O)[O-])cc1c(=O)n2CCCO`, the viability at 50 µM in data set [1] turned out to be 114%; in data set [3] it was 91.4%. Moreover, in data set [4], the midpoint of inhibition, the IC50, lay at 7.3 µM. Besides, the inhibition in the data set on HEK293 [2] came to 72.8%.
Turning to `CC(=O)Nc1ccc2c3c(n(CCCN)c(=O)c2c1)-c1ccccc1C3O` (stereo not drawn), the viability at 50 µM came out at 99.2% in data set [1] and 83.7% in data set [3]. The inhibition in the data set with HEK293 [2] was 0%.
For `CNCCCn1c2c(c3ccc([N+](=O)[O-])cc3c1=O)C(=O)c1ccccc1-2`, the viability at 50 µM is 79.7% in data set [1] and less than 50% in data set [3]. The IC50 in data set [4] turned out to be 3.7 µM. The inhibition with HEK293 [2] was 92.4%.
As for `CNc1ccc2c3c(n(CCCNC(=O)OC(C)(C)C)c(=O)c2c1)-c1ccccc1C3=O`, the viability at 50 µM in data set [1] turned out to be 68.6%; in data set [3], 94.8%. For the same compound, in the data set on HEK293 [2], the inhibition is 53.9%.
On the same counts, the results for `CC(=O)Nc1ccc2c3c(n(CCCO)c(=O)c2c1)-c1ccccc1C3=O` are 128%, 90.6% and 53.9%.
For the compound `CNCCCn1c2c(c3ccc(N)cc3c1=O)C(=O)c1ccccc1-2`, the viability at 50 µM was 117% in data set [1] and 64.5% in data set [3]. The IC50 in data set [4] came to 39.8 µM. Further, the inhibition with HEK293 [2] amounted to 63.1%. For the same compound, the fold change (FC) in data set [5] was 8.97.
`CC(C)(C)OC(=O)NCCCn1c2c(c3ccc(N)cc3c1=O)C(=O)c1ccccc1-2`: the viability at 50 µM in data set [1] was found to be 107%; in data set [3], 104%. The compound also had an inhibition in the data set with HEK293 [2] of 0%.
Take `CC(=O)Nc1ccc2c3c(n(CCCN=[N+]=[N-])c(=O)c2c1)-c1ccccc1C3=O`: the results for the viability at 50 µM in data set [1] and in data set [3] were 115% and 93.1%, respectively. The compound also showed an inhibition with HEK293 [2] of 0%.
For `Nc1ccc2c3c(n(CCCO)c(=O)c2c1)-c1ccccc1C3=O`, in that order: 116%, 85.9% and 53.2%.
In the case of `O=C1c2ccccc2-c2c1c1ccc([N+](=O)[O-])cc1c(=O)n2CCCBr`, the viability at 50 µM in data set [1] was found to be 118%. The compound also showed an inhibition with HEK293 [2] of 21.8%. The viability at 40 µM in data set [8] was 100%.
As to `CNc1ccc2c3c(n(CCCNC(=O)OC(C)(C)C)c(=O)c2c1)-c1ccccc1C3O` (stereo not drawn), the viability at 50 µM worked out at 90.1% in data set [1] and 67.5% in data set [3]. This compound yielded a half-inhibitory concentration (IC50) in data set [4] of 0.4 µM. In the data set with HEK293 [2], this compound showed an inhibition of 83.4%.
The compound `Cc1ccc(S(=O)(=O)/C=C/C#N)cc1` came in with a 50% inhibitory concentration (IC50) in data set [4] of 2.01 µM.
For the compound `CN(C)c1ccc2c3c(n(CCCN)c(=O)c2c1)-c1ccccc1C3=O`, the viability at 50 µM in data set [1] was 110%; in data set [3], less than 50%. Moreover, the IC50 in data set [4] turned out to be 32.3 µM. Besides, the inhibition with HEK293 [2] amounted to 86.3%.
With `Nc1ccc2c3c(n(CCCO)c(=O)c2c1)-c1ccccc1C3O` (stereo not drawn), the results for the viability at 50 µM in data set [1] and in data set [3] were 118% and 86.9%, respectively. In data set [4], this compound showed an IC50 of 49.3 µM. Further, the inhibition in the data set on HEK293 [2] stood at 57.8%.
For `CNCCCn1c2c(c3ccc(N)cc3c1=O)C(O)c1ccccc1-2` (stereo not drawn), in that order: 90.1%, 84.1%, 0.6 µM and 83.7%.
